From patent US12303509B2, “Compounds for the treatment of BRAF-associated diseases and disorders” (Pfizer Inc., priority 2020, dated 2025)

Legend:
[1] = system: WM3629 cells (BRAF D594G/NRAS G12D); experiment: Proliferation assay (CellTiter-Glo) in WM3629 cells; format: cell-based; conditions: 3-5 day incubation
Procedure: (§1) The compounds of Example 13, Example 14 and Example 126 were evaluated in a proliferation assay in two mutant BRAF Class III cell lines: NCI-H1666 (BRAF^G466V) and WM3629 cells (BRAF^D594G/NRAS^G12D). NCI-H1666 cells were obtained from the American Type Culture Collection (ATCC, Rockville, MD) and WM3629 cells were obtained from Rockland Immunochemicals (Limerick, PA). Cells were maintained in RPMI growth medium containing 10% FBS.
Cells were harvested according to standard protocols, counted, and plated onto flat-bottom, 96-well tissue culture plates (Costar #3599) at 2000-5000 cells/well in 100 μL/well of growth medium containing 10% FBS. Cells were incubated at 37° C. with 5% CO2 overnight then treated with inhibitors prepared as a 9-point, 1:3.33 fold dilution series with final compound concentrations ranging from 66 pM-10 μM and a constant DMSO concentration of 0.25%. Control wells contained 0.25% DMSO alone. After a 3-5 day incubation at 37° C., 5% CO2, cell viability was determined by adding 100 μL CellTiter-Glo® Reagent (Promega) to each well and incubated for 15 minutes at room temperature. “Day 0” controls were determined by performing CellTiter-Glo© assay on DMSO control wells at the time of compound treatment (“Day 0” control=0 POC). Luminescence was measured on a Cytation 5 plate reader (BioTek) and values were converted to POC using the following equation:
[formula] • Where: • Xmax Average DMSO Controls • Xmin Average “Day 0” DMSO Controls • IC50 values were calculated using a 4-parameter fit in XLfit software and are shown in Table A2.

[2] = MDR1 LLC-PK1 and BCRP MDCKII permeability assay: permeability coefficient (Papp); format: in vitro ADME
Description: Final organic concentration in the assay was 1%.

[3] = PK (free brain-to-free plasma ratio) (mouse); format: in vivo; conditions: male CD-1 mice, oral gavage 10 mg/kg, unbound brain-to-unbound plasma, read-out: B/P ratio (free)
Procedure: The ability of representative compounds to penetrate the BBB in mice was determined by evaluating the unbound brain-to-unbound plasma (also referred to as free brain-to-free plasma) concentration ratio in male CD-1 mice.
Brain compound levels were generated from oral mouse PK dosing with typical sampling times of 2, 4, 8, 12 and 24 hours post oral gavage dosing at 10 mg/kg. Brain samples were stored at −20±5° C. prior to analysis. Concentrations of test compound in mouse brain homogenate were determined by liquid chromatography tandem mass spectrometry (LC-MS/MS) following protein precipitation with acetonitrile. A 12-point calibration curve, ranging from 0.5 to 10,000 ng/mL, was prepared in duplicate. A solution of 400 μg/mL of test compound in dimethyl sulfoxide (DMSO) was serially diluted (3-fold) in 100% DMSO, and then 2.5 μL of each standard solution was added to 100 μL of naïve male CD-1 mice brain homogenate. To mimic the extraction in the standard curve, 2.5 μL of DMSO was added to all test samples. Both calibration and test brain homogenate samples were spiked with 10 μL of an IS (1 μg/mL of a structural analog). Brain homogenate was generated by adding 0.75 mL of 4:1 water:MeOH to each brain sample followed by homogenization for 1 minute with bead beater tubes a 6 m/s using an MP Fast Prep-24®. Proteins were precipitated from 100 μL of brain homogenate sample by the addition of 300 μL of acetonitrile. Samples were vortex-mixed for 5 minutes and spun in an Allegra X-12R centrifuge (Beckman Coulter, Fullerton, CA; SX4750A rotor) for 15 min at approximately 1,500×g at 4° C. A 100 μL aliquot of each supernatant was transferred via a 550 μL Personal Pipettor (Apricot Designs, Monrovia, CA) to 96-well plates and diluted 1:1 with HPLC grade water. The resulting plates were sealed with aluminum for LC-MS/MS analysis.
Brain-to-plasma ratios were calculated using the concentration of compound measured in the brain divided by the concentration of compound measured in the plasma. Brain-to-plasma ratios were always generated from a single animal and time point. Free brain-to-free plasma ratios were calculated by multiplying the brain-to-plasma ratio by the in vitro brain homogenate free fraction divided by the in vitro plasma free fraction using the following equation: (B/P)*(Bfu/Pfu). Table C provides the free brain-to-free plasma ratios of compounds disclosed herein.

[4] = system: NCI-H1666 (BRAF G466V) cells; experiment: Cellular phospho-ERK inhibition assay in NCI-H1666 cells; format: cell-based; conditions: Homo sapiens, 1 hour treatment, read-out: IC50 NCI-H1666 pERK
Procedure: as §1, with “phospho-ERK” for “proliferation”
Cells were harvested according to standard protocols, counted, and plated onto flat-bottom, 96-well tissue culture plates (Costar #3599) at 2.5×10^4 cells/well in 100 μL/well of growth medium containing 10% FBS. After an overnight incubation at 37° C. with 5% CO2 cells were treated for 1 hour at 37° C., 5% CO2 with inhibitors prepared as a 9-point, 1:3.33 fold dilution series with final compound concentrations ranging from 66 pM-10 μM and a constant DMSO concentration of 0.25%. Control wells contained either 0.25% DMSO alone (uninhibited control) or 10 μM binimetinib (complete inhibition control). The levels of phosphorylated ERK were determined using an In Cell Western protocol: following compound incubation, growth medium was discarded, and cells were fixed with 0.4% formaldehyde in PBS for 20 minutes at room temperature. Cells were permeabilized with 100% methanol for 10 minutes at room temperature. Plates were washed with PBS containing 0.05% Tween-20 and blocked for 1 hour at room temperature with LI-COR Blocking Buffer (LI-COR Biosciences; Cat. #927-40000). Plates were then incubated for 2 hours at room temperature with 50 μL of a 1:400 dilution of anti-phospho-ERK1/2 (Thr202/Tyr204) (Cell Signaling; Cat. #9101) and a 1:1000 dilution of anti-GAPDH (Millipore; Cat. #MAB374) in LI-COR blocking buffer containing 0.05% Tween-20. […] Plates were analyzed by reading on an Odyssey CLx infrared scanner. […]
[formula] • Where: • Xmax d Average Uninhibited Controls • Xmin Average Complete Inhibition Controls • IC50 values were then calculated using a 4-parameter fit in XLfit software and are shown in Table A2.

SMILES	IC50 [1]	Papp at 2 h, 1 µM [2]	Kp [3]	IC50 [4]
Cn1cnc2ccc(Nc3c(F)ccc(NS(=O)(=O)N4CC[C@@H](F)C4)c3Cl)c(F)c2c1=O [Example 14, (R)-N-(2-chloro-4-fluoro-3-((5-fluoro-3-methyl-4-oxo-3,4-dihydroquinazolin-6-yl)amino)phenyl)-3-fluoropyrrolidine-1-sulfonamide]	> 10000 nM	28 ×10⁻⁶ cm/s	0.13 to 0.39	7.1 nM
Cn1cnc2ccc(Nc3c(F)ccc(NS(=O)(=O)N4CC5CC4C5)c3Cl)c(F)c2c1=O [Example 13, N-(2-chloro-4-fluoro-3-((5-fluoro-3-methyl-4-oxo-3,4-dihydroquinazolin-6-yl)amino)phenyl)-2-azabicyclo[2.1.1]hexane-2-sulfonamide]	> 10000 nM	32 ×10⁻⁶ cm/s	0.75 to 0.93	15 nM
